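Five concentrations, 48 hours, 96-well plates. Abbreviation: GI50, concentration required for 50% inhibition of growth.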 Active and inactive are the calls of the source. Rule as the data show it: active = GI50 up to about 1.1 µM and inactive = higher. Bounds are passed on as bounds.

Common to all, as to test: inhibition of tumour cell growth, NCI panel, 48 h
Assay [1] has as its system SNB-75.
Assay [2] relates to LOX IMVI.
Assay [3] has as its system COLO 205.
In assay [4] the test system is OVCAR-5.
Assay [5] relates to HT-29.
For assay [6], the system named is SW-620.
Assay [7] deals with SK-MEL-2.
Assay [8] concerns HL-60.
Assay [9] has as its system OVCAR-3.
Assay [10] concerns RXF 393.
Assay [11] has as its system SK-MEL-28.
Assay [12] has as its system U-251.
In assay [13] the test system is SK-MEL-5.
In assay [14] the test system is EKVX.
Assay [15] deals with HOP-92.
For assay [16], the system named is SK-OV-3.
In assay [17] the test system is SF-295.
Assay [18] has as its system OVCAR-8.
In assay [19] the test system is OVCAR-4.
In assay [20] the test system is SNB-19.

Consider `C=C1C(=O)OC2/C=C(\C(=O)O)CC/C=C(\C)CC(OC(=O)/C=C(\C)CC)C12` (stereo not given), for which the GI50 in [1] was 19.5 µM (inactive); in assay [2], 15.3 µM (inactive); in assay [3] it was 17 µM (inactive); in assay [4], 13.5 µM (inactive); in [5] it was 15.7 µM (inactive); in [6] it was 16.6 µM (inactive). Besides, the GI50 is 14.4 µM (inactive) in [7]; 72.6 µM (inactive) in [8]; 16.3 µM (inactive) in assay [9]; 14 µM (inactive) in assay [10]; 18.8 µM (inactive) in [11]; 17 µM (inactive) in assay [12]. Moreover, the GI50 in [13] is 18.8 µM (inactive); in assay [14] it was 24.7 µM (inactive); in assay [15] it was 20.9 µM (inactive); in [16], 20.3 µM (inactive); in assay [17], 17.3 µM (inactive); in assay [18], 17.2 µM (inactive). For the same compound, the GI50 was 16.9 µM (inactive) in [19] and 18.9 µM (inactive) in [20].

Regarding `O=S(=O)(O)c1ccc(/N=N\c2ccc(/N=N\c3ccc(/C=C/c4ccc(/N=[N+](/[O-])c5ccc(/C=C/c6ccc(/N=N/c7ccc(/N=N\c8ccc(S(=O)(=O)O)cc8)cc7)cc6S(=O)(=O)O)c(S(=O)(=O)O)c5)cc4S(=O)(=O)O)c(S(=O)(=O)O)c3)cc2)cc1`, the GI50 is 69.7 µM (inactive) in assay [1]; > 100 µM (inactive) in assay [2]; > 100 µM (inactive) in [3]; > 100 µM (inactive) in [4]; > 100 µM (inactive) in assay [5]; > 100 µM (inactive) in [6]. Further, the GI50 in assay [7], in assay [8], in [9], in [10], in assay [11] and in assay [12] was > 100 µM (inactive) throughout. In addition, the GI50 in [13], in assay [14], in assay [15], in [16], in [17] and in assay [18] was > 100 µM (inactive) each time. The GI50 in assay [19] is > 87.9 µM (inactive); in assay [20] it was > 100 µM (inactive).

On to `COC(=O)C1C(O)C(C)C(O)OC1C(C)C(O)C(C)/C=C\C=C(/C)C(=O)Nc1c(C)c(OC(C)=O)c2c(c1O)C(=O)C(C)=C1OCOC(/C(C)=C/C(C)=O)=C12` (stereo not given), for which the GI50 in [1] was 3.77 µM (inactive); in assay [2] it was 13.7 µM (inactive); in [3] it was 8.99 µM (inactive); in [4], 13.5 µM (inactive); in assay [5], 14.5 µM (inactive); in [6], 9.53 µM (inactive). Also, the GI50 in [7] was 12.6 µM (inactive); in assay [8], 3.1 µM (inactive); in assay [9], 9.38 µM (inactive); in assay [10], 13 µM (inactive); in assay [11] it was 2.99 µM (inactive); in assay [12], 14.4 µM (inactive). In addition, the GI50 in [13] is 12.8 µM (inactive); in assay [14] it was 11.9 µM (inactive); in assay [15] it was 12.8 µM (inactive); in [16], 20 µM (inactive); in assay [17] it was 14.9 µM (inactive); in assay [18] it was 13.7 µM (inactive). Further, the GI50 was 12.1 µM (inactive) in assay [19] and 15.1 µM (inactive) in [20].

For the compound `OC(c1cccnc1Cl)c1nc2ccccc2c2ccnc(Cl)c12` (stereo not given), the GI50 is 15 µM (inactive) in assay [1]; 7.01 µM (inactive) in [2]; 3.38 µM (inactive) in [3]; 9.51 µM (inactive) in assay [4]; 4.6 µM (inactive) in assay [5]; 3.06 µM (inactive) in assay [6]. For the same compound, the GI50 in [7] was 4.94 µM (inactive); in assay [8], 2.77 µM (inactive); in assay [9], 6.08 µM (inactive); in assay [10], 4.12 µM (inactive); in [11] it was 23.7 µM (inactive); in assay [12] it was 4.18 µM (inactive). The GI50 in assay [13] is 3.46 µM (inactive); in assay [14] it was 19.2 µM (inactive); in assay [15] it was 18.7 µM (inactive); in assay [16] it was 8.38 µM (inactive); in assay [17], 2.52 µM (inactive); in assay [18], 9.12 µM (inactive). Moreover, the GI50 in [19] is 27.5 µM (inactive); in [20], 6.82 µM (inactive).

For `CCCCCCCCCCCCCCCCNCC(O)CN` (stereo not given), the GI50 is 3.28 µM (inactive) in assay [1]; 1.75 µM (inactive) in [2]; 1.87 µM (inactive) in assay [3]; 7.76 µM (inactive) in assay [4]; 1.99 µM (inactive) in [5]; 1.79 µM (inactive) in assay [6]. Also, the GI50 in assay [7] was 18.6 µM (inactive); in [8] it was 1.85 µM (inactive); in [9], 2.52 µM (inactive); in [10], 2.82 µM (inactive); in assay [11] it was 13.1 µM (inactive); in assay [12] it was 2.51 µM (inactive). The GI50 in [13] was 11.7 µM (inactive); in assay [14], 17.3 µM (inactive); in [15] it was 2.65 µM (inactive); in assay [16], 18.4 µM (inactive); in assay [17] it was 2.64 µM (inactive); in assay [18], 3.53 µM (inactive). Also, the GI50 in [19] is 3.48 µM (inactive); in [20], 19.5 µM (inactive).

For `CC[C@@]1(O)C[C@H](OC2CC(N(C)C)C(O)C(C)O2)c2c(cc3c(c2O)C(=O)c2c(O)ccc(O)c2C3=O)[C@H]1C(=O)OC` (stereo not given in full), the GI50 was 0.0826 µM (active) in [1]; 0.0229 µM (active) in assay [2]; 0.0467 µM (active) in assay [3]; 0.141 µM (active) in [4]; 0.0388 µM (active) in assay [5]; 0.0267 µM (active) in [6]. Further, the GI50 was 0.101 µM (active) in [7]; 0.0457 µM (active) in [8]; 0.149 µM (active) in [9]; 0.0366 µM (active) in assay [10]; 0.148 µM (active) in [11]; 0.0405 µM (active) in assay [12]. For the same compound, the GI50 was 0.0938 µM (active) in [13]; 0.135 µM (active) in assay [14]; 0.256 µM (active) in assay [15]; 0.236 µM (active) in [16]; 0.032 µM (active) in assay [17]; 0.0239 µM (active) in [18]. The values for the GI50 in assay [19] and in [20] were 0.029 µM (active) and 0.0991 µM (active), respectively.

For the origin of these results see ChEMBL document CHEMBL1201862, “PubChem BioAssay data set” (2004).
